Columns and labels:
Format in all cases: functional
NCI-H322M = assay: Growth inhibition of human NCI-H322M cells assessed as cell growth incubated for 48 hrs by sulforhodamine B assay; design: scale not given: the % may be the effect or the level left
NCI-H460 = assay: Growth inhibition of human NCI-H460 cells assessed as cell growth incubated for 48 hrs by sulforhodamine B assay; design: concentration or dose not given beside the values
HCC 2998 = assay: Growth inhibition of human HCC2998 cells assessed as cell growth incubated for 48 hrs by sulforhodamine B assay; design: concentration or dose not given beside the values
TK-10 = assay: Growth inhibition of human TK10 cells assessed as cell growth incubated for 48 hrs by sulforhodamine B assay; design: concentration or dose not given beside the values
SF-295 = assay: Growth inhibition of human SF295 cells assessed as cell growth incubated for 48 hrs by sulforhodamine B assay; design: concentration or dose not given beside the values
UO-31 = assay: Growth inhibition of human UO31 cells assessed as cell growth incubated for 48 hrs by sulforhodamine B assay; design: concentration or dose not given beside the values
U-251 = assay: Growth inhibition of human U251 cells assessed as cell growth incubated for 48 hrs by sulforhodamine B assay; design: concentration or dose not given beside the values
HOP-62 = assay: Growth inhibition of human HOP62 cells assessed as cell growth incubated for 48 hrs by sulforhodamine B assay; design: concentration or dose not given beside the values
LOX IMVI = assay: Growth inhibition of human LOXIMVI cells assessed as cell growth incubated for 48 hrs by sulforhodamine B assay; design: concentration or dose not given beside the values
HCT-15 = assay: Growth inhibition of human HCT15 cells assessed as cell growth incubated for 48 hrs by sulforhodamine B assay; design: scale not given: the % may be the effect or the level left
HT-29 = assay: Growth inhibition of human HT-29 cells assessed as cell growth incubated for 48 hrs by sulforhodamine B assay; design: concentration or dose not given beside the values
MDA-MB-231 = assay: Growth inhibition of human MDA-MB-231 cells assessed as cell growth incubated for 48 hrs by sulforhodamine B assay; design: concentration or dose not given beside the values
OVCAR-3 = assay: Growth inhibition of human OVCAR3 cells assessed as cell growth incubated for 48 hrs by sulforhodamine B assay; design: concentration or dose not given beside the values
RPMI-8226 = assay: Growth inhibition of human RPMI8226 cells assessed as cell growth incubated for 48 hrs by sulforhodamine B assay; design: concentration or dose not given beside the values
Hs-578T = assay: Growth inhibition of human Hs 578T cells assessed as cell growth incubated for 48 hrs by sulforhodamine B assay; design: concentration or dose not given beside the values
SNB-75 = assay: Growth inhibition of human SNB75 cells assessed as cell growth incubated for 48 hrs by sulforhodamine B assay; design: concentration or dose not given beside the values
COLO 205 = assay: Growth inhibition of human COLO205 cells assessed as cell growth incubated for 48 hrs by sulforhodamine B assay; design: concentration or dose not given beside the values
K562 = assay: Growth inhibition of human K562 cells assessed as cell growth incubated for 48 hrs by sulforhodamine B assay; design: concentration or dose not given beside the values
NCI-H522 = assay: Growth inhibition of human NCI-H522 cells assessed as cell growth incubated for 48 hrs by sulforhodamine B assay; design: concentration or dose not given beside the values
A498 = assay: Growth inhibition of human A498 cells assessed as cell growth incubated for 48 hrs by sulforhodamine B assay; design: concentration or dose not given beside the values
OVCAR-5 = assay: Growth inhibition of human OVCAR5 cells assessed as cell growth incubated for 48 hrs by sulforhodamine B assay; design: scale not given: the % may be the effect or the level left
A549 = assay: Growth inhibition of human A549/ATCC cells assessed as cell growth incubated for 48 hrs by sulforhodamine B assay; design: concentration or dose not given beside the values
MDA-MB-435 = assay: Growth inhibition of human MDA-MB-435 cells assessed as cell growth incubated for 48 hrs by sulforhodamine B assay; design: concentration or dose not given beside the values
PC-3 = assay: Growth inhibition of human PC3 cells assessed as cell growth incubated for 48 hrs by sulforhodamine B assay; design: concentration or dose not given beside the values
MDA-MB-468 = assay: Growth inhibition of human MDA-MB-468 cells assessed as cell growth incubated for 48 hrs by sulforhodamine B assay; design: concentration or dose not given beside the values
MOLT-4 = assay: Growth inhibition of human MOLT4 cells assessed as cell growth incubated for 48 hrs by sulforhodamine B assay; design: concentration or dose not given beside the values
SK-OV-3 = assay: Growth inhibition of human SKOV3 cells assessed as cell growth incubated for 48 hrs by sulforhodamine B assay; design: concentration or dose not given beside the values
HOP-92 = assay: Growth inhibition of human HOP92 cells assessed as cell growth incubated for 48 hrs by sulforhodamine B assay; design: concentration or dose not given beside the values
DU-145 = assay: Growth inhibition of human DU145 cells assessed as cell growth incubated for 48 hrs by sulforhodamine B assay; design: concentration or dose not given beside the values
M14 = assay: Growth inhibition of human M14 cells assessed as cell growth incubated for 48 hrs by sulforhodamine B assay; design: concentration or dose not given beside the values
SNB-19 = assay: Growth inhibition of human SNB19 cells assessed as cell growth incubated for 48 hrs by sulforhodamine B assay; design: concentration or dose not given beside the values
OVCAR-4 = assay: Growth inhibition of human OVCAR4 cells assessed as cell growth incubated for 48 hrs by sulforhodamine B assay; design: concentration or dose not given beside the values
SK-MEL-2 = assay: Growth inhibition of human SK-MEL-2 cells assessed as cell growth incubated for 48 hrs by sulforhodamine B assay; design: concentration or dose not given beside the values
UACC-62 = assay: Growth inhibition of human UACC62 cells assessed as cell growth incubated for 48 hrs by sulforhodamine B assay; design: concentration or dose not given beside the values
SR = assay: Growth inhibition of human SR cells assessed as cell growth incubated for 48 hrs by sulforhodamine B assay; design: concentration or dose not given beside the values
BT-549 = assay: Growth inhibition of human BT549 cells assessed as cell growth incubated for 48 hrs by sulforhodamine B assay; design: concentration or dose not given beside the values
HCT-116 = assay: Growth inhibition of human HCT116 cells assessed as cell growth incubated for 48 hrs by sulforhodamine B assay; design: concentration or dose not given beside the values
Malme-3M = assay: Growth inhibition of human MALME-3M cells assessed as cell growth incubated for 48 hrs by sulforhodamine B assay; design: scale not given: the % may be the effect or the level left
CAKI-1 = assay: Growth inhibition of human Caki1 cells assessed as cell growth incubated for 48 hrs by sulforhodamine B assay; design: concentration or dose not given beside the values
UACC-257 = assay: Growth inhibition of human UACC257 cells assessed as cell growth incubated for 48 hrs by sulforhodamine B assay; design: concentration or dose not given beside the values
SK-MEL-5 = assay: Growth inhibition of human SK-MEL-5 cells assessed as cell growth incubated for 48 hrs by sulforhodamine B assay; design: concentration or dose not given beside the values
SN12C = assay: Growth inhibition of human SN12C cells assessed as cell growth incubated for 48 hrs by sulforhodamine B assay; design: concentration or dose not given beside the values
NCI-H226 = assay: Growth inhibition of human NCI-H226 cells assessed as cell growth incubated for 48 hrs by sulforhodamine B assay; design: concentration or dose not given beside the values
NCI/ADR-RES = assay: Growth inhibition of human NCI/ADR-RES cells assessed as cell growth incubated for 48 hrs by sulforhodamine B assay; design: concentration or dose not given beside the values
SK-MEL-28 = assay: Growth inhibition of human SK-MEL-28 cells assessed as cell growth incubated for 48 hrs by sulforhodamine B assay; design: concentration or dose not given beside the values
HL-60(TB) = assay: Growth inhibition of human HL-60(TB) cells assessed as cell growth incubated for 48 hrs by sulforhodamine B assay; design: concentration or dose not given beside the values
ACHN = assay: Growth inhibition of human ACHN cells assessed as cell growth incubated for 48 hrs by sulforhodamine B assay; design: scale not given: the % may be the effect or the level left
RXF 393 = assay: Growth inhibition of human RXF393 cells assessed as cell growth incubated for 48 hrs by sulforhodamine B assay; design: concentration or dose not given beside the values
SW-620 = assay: Growth inhibition of human SW620 cells assessed as cell growth incubated for 48 hrs by sulforhodamine B assay; design: concentration or dose not given beside the values
MCF7 = assay: Growth inhibition of human MCF7 cells assessed as cell growth incubated for 48 hrs by sulforhodamine B assay; design: concentration or dose not given beside the values
SF-268 = assay: Growth inhibition of human SF268 cells assessed as cell growth incubated for 48 hrs by sulforhodamine B assay; design: concentration or dose not given beside the values
KM12 = assay: Growth inhibition of human KM12 cells assessed as cell growth incubated for 48 hrs by sulforhodamine B assay; design: concentration or dose not given beside the values
786-0 = assay: Growth inhibition of human 786-0 cells assessed as cell growth incubated for 48 hrs by sulforhodamine B assay; design: concentration or dose not given beside the values
SF-539 = assay: Growth inhibition of human SF539 cells assessed as cell growth incubated for 48 hrs by sulforhodamine B assay; design: scale not given: the % may be the effect or the level left
CCRF-CEM = assay: Growth inhibition of human CCRF-CEM cells assessed as cell growth incubated for 48 hrs by sulforhodamine B assay; design: concentration or dose not given beside the values
T47D = assay: Growth inhibition of human T47D cells assessed as cell growth incubated for 48 hrs by sulforhodamine B assay; design: concentration or dose not given beside the values
NCI-H23 = assay: Growth inhibition of human NCI-H23 cells assessed as cell growth incubated for 48 hrs by sulforhodamine B assay; design: concentration or dose not given beside the values
OVCAR-8 = assay: Growth inhibition of human OVCAR8 cells assessed as cell growth incubated for 48 hrs by sulforhodamine B assay; design: concentration or dose not given beside the values

Question: `NCC1CN(C(=O)CCc2ccc3c(=O)c4sc5c(=O)c6ccccc6c(=O)c5c4c(=O)c3c2)C1.O=C(O)C(F)(F)F` was tested. Which Activity (NCI-H322M) did it give?
Answer: -97.48%

Question: What about the Activity (NCI-H460) of the same compound?
Answer: -52.32%

Question: And the Activity (HCC 2998)?
Answer: -90.76%

Question: And the Activity (TK-10)?
Answer: -89.49%

Question: What about the Activity (SF-295) of the same compound?
Answer: -92.59%

Question: What about the Activity (UO-31) of the same compound?
Answer: -96.98%

Question: What about the Activity (U-251) of the same compound?
Answer: -92.83%

Question: And the Activity (HOP-62)?
Answer: -90.94%

Question: And the Activity (LOX IMVI)?
Answer: -82.6%

Question: And the Activity (HCT-15)?
Answer: -61.54%

Question: And the Activity (HT-29)?
Answer: -46.19%

Question: And the Activity (MDA-MB-231)?
Answer: -15.99%

Question: What about the Activity (OVCAR-3) of the same compound?
Answer: -68.52%

Question: And the Activity (RPMI-8226)?
Answer: -39.84%

Question: What about the Activity (Hs-578T) of the same compound?
Answer: 1.09%

Question: And the Activity (SNB-75)?
Answer: -95.74%

Question: And the Activity (COLO 205)?
Answer: -91.79%

Question: What about the Activity (K562) of the same compound?
Answer: -59.88%

Question: What about the Activity (NCI-H522) of the same compound?
Answer: -72.26%

Question: And the Activity (A498)?
Answer: -87.3%

Question: What about the Activity (OVCAR-5) of the same compound?
Answer: -85.63%

Question: And the Activity (A549)?
Answer: -55.33%

Question: What about the Activity (MDA-MB-435) of the same compound?
Answer: -93.07%

Question: And the Activity (PC-3)?
Answer: -79.46%

Question: And the Activity (MDA-MB-468)?
Answer: -83.65%

Question: What about the Activity (MOLT-4) of the same compound?
Answer: -36.2%

Question: And the Activity (SK-OV-3)?
Answer: -97.49%

Question: And the Activity (HOP-92)?
Answer: -32.93%

Question: And the Activity (DU-145)?
Answer: -94.41%

Question: And the Activity (M14)?
Answer: -93.82%

Question: And the Activity (SNB-19)?
Answer: -98.59%

Question: What about the Activity (OVCAR-4) of the same compound?
Answer: -71.07%

Question: What about the Activity (SK-MEL-2) of the same compound?
Answer: -72.32%

Question: What about the Activity (UACC-62) of the same compound?
Answer: -88.01%

Question: And the Activity (SR)?
Answer: -25%

Question: What about the Activity (BT-549) of the same compound?
Answer: -96.67%

Question: What about the Activity (HCT-116) of the same compound?
Answer: -80.84%

Question: And the Activity (Malme-3M)?
Answer: -93.22%

Question: What about the Activity (CAKI-1) of the same compound?
Answer: -78.75%

Question: And the Activity (UACC-257)?
Answer: -92.08%

Question: What about the Activity (SK-MEL-5) of the same compound?
Answer: -98.07%

Question: What about the Activity (SN12C) of the same compound?
Answer: -69%

Question: And the Activity (NCI-H226)?
Answer: -49.62%

Question: And the Activity (NCI/ADR-RES)?
Answer: -15.35%

Question: And the Activity (SK-MEL-28)?
Answer: -96.8%

Question: And the Activity (HL-60(TB))?
Answer: -46.78%

Question: And the Activity (ACHN)?
Answer: -96.22%

Question: And the Activity (RXF 393)?
Answer: -77.25%

Question: What about the Activity (SW-620) of the same compound?
Answer: -60.32%

Question: And the Activity (MCF7)?
Answer: -58.78%

Question: And the Activity (SF-268)?
Answer: -57.54%

Question: And the Activity (KM12)?
Answer: -76.76%

Question: And the Activity (786-0)?
Answer: -95.07%

Question: And the Activity (SF-539)?
Answer: -99.46%

Question: And the Activity (CCRF-CEM)?
Answer: -29.57%

Question: What about the Activity (T47D) of the same compound?
Answer: -51.1%

Question: What about the Activity (NCI-H23) of the same compound?
Answer: -50.82%

Question: And the Activity (OVCAR-8)?
Answer: -38.88%
